Data published in patent EP4813463A2, “TYK2 INHIBITORS AND COMPOSITIONS AND METHODS THEREOF” (Lynk Pharmaceuticals Co. Ltd., priority 2023, dated 2024).
Where two headings read alike, the source gives them in different places.

Experiments:
[1] = test system: Ba/F3-FL-TYK2-P760L cells; assay: Anti-proliferative assay in engineered Ba/F3 cells (Cell-Titer Glo, 72 h); type: cell-based; conditions: Mus musculus, concentration that causes 50% growth inhibition, read-out: Baf3-FL-T2P760L
Description: Dimerization domain of Tel protein fused with JAK kinase domain was permanently transduced into Ba/F3 cells, whose proliferation is dependent on JAK activity in the absence of IL-3 induction. These engineered Ba/F3-FL-TYK2-P760L cells were used to monitor JAK inhibitory activities of the compounds in the cellular. Ba/F3 cells were cultured in RPMI-1640 (Corning) containing 10% fetal bovine serum. Cells were seeded at 2000/well of white flat bottom 96-well plates. The well containing medium only was used as background control. After 24h growth, cells were treated with compounds. The test compounds were dissolved in DMSO to a stock concentration of 20 mM. 3-fold serially diluted compounds for 9 concentrations with top concentration of 20 µM was added into the each well. The final DMSO concentration was 0.1%. The cells continued to grow at 37°C in 5% CO2 for 72 h after compound treatment. The viability was measured by cellular ATP determination using the Cell-Titer Glo luciferase reagent (Promega). The Luminescence value was recorded by a multi-label reader Envision (PerkinElmer). Inhibition Rate was calculated relative to vehicle (DMSO) treated control wells using following formula: % Inhibition = 100−(RLU_compound−RLU_blank)/(RLU_control−RLU_blank) × 100% [formula] wherein • RLU_compound = the relative light unit of cells treated with test compounds • RLU_blank = the relative light unit of medium with DMSO only • RLU_control = the relative light unit of cells treated with DMSO only
Table 4. Ba/F3-FL-TYK2-P760L Cells IC50 Values of Exemplary Compounds

TYK2-JH2 domain = molecular target: T1, TYK2-JH2 domain (Homo sapiens, UniProt P29597); assay: Binding activity test for JH2 domain of TYK2 (Tb-antibody/tracer FRET)
T1 construct: JAK1-JH2 domain or TYK2-JH2 domain enzyme in assay buffer
Method in brief: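 IC50 values (nM) come from TR-FRET readings taken after a 25°C incubation followed by overnight at 4°C. Each well held JH2 domain protein, Tb-antibody, tracer and test compound titrated in 11 threefold steps, with DMSO high and low controls.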

[2] = BaF3, 72 h, 72 h compound treatment
[3] = JH2 domain enzyme; 60 min at 25°C, then 4°C overnight; read-out: TYK2 JH2 Binding IC50

T1 sequence (P29597 589-875 limits assumed): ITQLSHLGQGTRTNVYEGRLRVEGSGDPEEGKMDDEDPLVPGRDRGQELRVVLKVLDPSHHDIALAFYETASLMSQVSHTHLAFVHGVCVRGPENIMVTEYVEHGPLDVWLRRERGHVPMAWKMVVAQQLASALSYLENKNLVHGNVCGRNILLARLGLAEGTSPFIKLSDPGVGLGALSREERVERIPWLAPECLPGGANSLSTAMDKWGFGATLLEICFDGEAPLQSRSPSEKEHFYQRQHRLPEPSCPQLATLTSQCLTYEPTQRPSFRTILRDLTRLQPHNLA

IC50 [1, 2] [nM] | IC50 (TYK2-JH2 domain; [3]) [nM] | Compound | IC50 ([1]; BaF3, 72 h compound treatment) [nM] | IC50 (TYK2-JH2 domain; read-out: TYK2 JH2 Binding IC50; JH2 domain enzyme; 60 min at 25°C, then 4°C overnight) [nM]
5.58 | 0.182 | COC(=O)c1cnc(NC(=O)C2CC2)cc1Nc1nn(C)c2ccc(C(OC)C(C)(F)F)c(OC)c12 (stereo not shown) [Example 115, Methyl 6-(cyclopropanecarboxamido)-4-((5-(2,2-difluoro-1-methoxypropyl)-4-methoxy-1-methyl-1H-indazol-3-yl)amino)nicotinate] | – | –
4.65 | 0.188 | COC(=O)c1cnc(NC(=O)[C@@H]2C[C@@H]2F)cc1Nc1nn(C)c2ccc(C(OC)C(C)(F)F)c(OC)c12 (stereo partly drawn) [Example 116, Methyl 4-((5-(2,2-difluoro-1-methoxypropyl)-4-methoxy-1-methyl-1H-indazol-3-yl)amino)-6-((1S,2S)-2-fluorocyclopropane-1-carboxamido)nicotinate] | – | –
2.71 | 0.089 | [2H]C([2H])([2H])Oc1c([C@H](OC)C(F)(F)F)ccc2c1c(Nc1cc(NC(=O)C3CC3)ncc1C(=O)OC)nn2C [Example 120A, Methyl (S)-6-(cyclopropanecarboxamido)-4-((4-(methoxy-d3)-1-methyl-5-(2,2,2-trifluoro-1-methoxyethyl)-1H-indazol-3-yl)amino)nicotinate] | – | –
107 | 0.442 | [2H]C([2H])([2H])Oc1c([C@@H](OC)C(F)(F)F)ccc2c1c(Nc1cc(NC(=O)C3CC3)ncc1C(=O)OC)nn2C [Example 120B, Methyl (R)-6-(cyclopropanecarboxamido)-4-((4-(methoxy-d3)-1-methyl-5-(2,2,2-trifluoro-1-methoxyethyl)-1H-indazol-3-yl)amino)nicotinate] | – | –
52.3 | 0.256 | [2H]C([2H])([2H])CC(=O)c1cnc(NC(=O)C2CC2)cc1Nc1nn(C)c2ccc(C#N)c(OC)c12 [Example 127, N-(4-((5-cyano-4-methoxy-1-methyl-1H-indazol-3-yl)amino)-5-(propanoyl-3,3,3-d3)pyridin-2-yl)cyclopropanecarboxamide] | – | –
17.3 | 0.26 | COC(=O)c1cnc(NC(=O)C2CC2)cc1Nc1nn(C)c2ccc(C(O)C3(F)CC3)c(OC)c12 (stereo not shown) [Example 128, Methyl 6-(cyclopropanecarboxamido)-4-((5-((1-fluorocyclopropyl)(hydroxy)methyl)-4-methoxy-1-methyl-1H-indazol-3-yl)amino)nicotinate] | – | –
1.41 | 0.466 | CCC(F)(F)c1cnc(NC(=O)C2CC2)cc1Nc1nn(C)c2ccc(C(O)C(F)(F)F)c(OC)c12 (stereo not shown) [Example 129, N-(5-(1,1-difluoropropyl)-4-((4-methoxy-1-methyl-5-(2,2,2-trifluoro-1-hydroxyethyl)-1H-indazol-3-yl)amino)pyridin-2-yl)cyclopropanecarboxamide] | – | –
157 | 0.688 | C/C=C(\F)c1cnc(NC(=O)C2CC2)cc1Nc1nn(C)c2ccc(C(O)C(F)(F)F)c(OC)c12 (stereo not shown) [Example 130, (Z)-N-(5-(1-fluoroprop-1-en-1-yl)-4-((4-methoxy-1-methyl-5-(2,2,2-trifluoro-1-hydroxyethyl)-1H-indazol-3-yl)amino)pyridin-2-yl)cyclopropanecarboxamide] | – | –
25.9 | 0.174 | [2H]C([2H])([2H])CC(=O)c1cnc(NC(=O)C2CC2)cc1Nc1nn(C)c2ccc(COC)c(OC)c12 [Example 132, N-(4-((4-methoxy-5-(methoxymethyl)-1-methyl-1H-indazol-3-yl)amino)-5-(propanoyl-3,3,3-d3)pyridin-2-yl)cyclopropanecarboxamide] | – | –
53.3 | 0.288 | COCc1ccc2c(c(Nc3cc(NC(=O)C4CC4)ncc3C(=O)OC)nn2C)c1OC [Example 133, Methyl 6-(cyclopropanecarboxamido)-4-((4-methoxy-5-(methoxymethyl)-1-methyl-1H-indazol-3-yl)amino)nicotinate] | – | –
0.327 | 0.07 | [2H]C([2H])([2H])NC(=O)c1nnc(NC(=O)C2CC2)cc1Nc1nn(C)c2ccc([C@H](OC([2H])([2H])[2H])C(F)(F)F)c(OC)c12 [Example 135, (S)-6-(cyclopropanecarboxamido)-4-((4-methoxy-1-methyl-5-(2,2,2-trifluoro-1-(methoxy-d3)ethyl)-1H-indazol-3-yl)amino)-N-(methyl-d3)pyridazine-3-carboxamide] | – | –
99.8 | 0.377 | COC(=O)c1cnc(NC(=O)C2CC2)cc1Nc1nn(C)c2ccc(Cl)c(OC)c12 [Example 137, Methyl 4-((5-chloro-4-methoxy-1-methyl-1H-indazol-3-yl)amino)-6-(cyclopropanecarboxamido)nicotinate] | – | –
12 | 0.185 | COC(=O)c1cnc(Nc2ccc(F)cn2)cc1Nc1nn(C)c2ccc(C(OC)C(F)(F)F)c(OC)c12 (stereo not shown) [Example 142, Methyl 6-((5-fluoropyridin-2-yl)amino)-4-((4-methoxy-1-methyl-5-(2,2,2-trifluoro-1-methoxyethyl)-1H-indazol-3-yl)amino)nicotinate] | – | –
15.2 | 0.151 | COC(=O)c1cnc(NC(=O)C2CC2)cc1Nc1nn(C)c2ccc(CC#N)c(OC)c12 [Example 145, Methyl 4-((5-(cyanomethyl)-4-methoxy-1-methyl-1H-indazol-3-yl)amino)-6-(cyclopropanecarboxamido)nicotinate] | – | –
23.8 | 0.146 | [2H]C([2H])([2H])CC(=O)c1cnc(NC(=O)C2CC2)cc1Nc1nn(C)c2ccc(Cl)c(OC)c12 [Example 147, N-(4-((5-chloro-4-methoxy-1-methyl-1H-indazol-3-yl)amino)-5-(propanoyl-3,3,3-d3)pyridin-2-yl)cyclopropanecarboxamide] | – | –
7.08 | 0.091 | COC(=O)c1cnc(NC(=O)C2CC2)cc1Nc1nn(C)c2ccc(CC(F)(F)F)c(OC)c12 [Example 148, Methyl 6-(cyclopropanecarboxamido)-4-((4-methoxy-1-methyl-5-(2,2,2-trifluoroethyl)-1H-indazol-3-yl)amino)nicotinate] | – | –
32.7 | 0.154 | [2H]C([2H])([2H])CC(=O)c1cnc(NC(=O)C2CC2)cc1Nc1nn(C)c2ccc(C(OC)C3(F)CC3)c(OC)c12 (stereo not shown) [Example 150, N-(4-((5-((1-fluorocyclopropyl)(methoxy)methyl)-4-methoxy-1-methyl-1H-indazol-3-yl)amino)-5-(propanoyl-3,3,3-d3)pyridin-2-yl)cyclopropanecarboxamide] | – | –
– | – | [2H]C([2H])([2H])O[C@@H](c1ccc2c(c(Nc3cc(NC(=O)C4CC4)ncc3C(=O)NC)nn2C)c1OC)C(F)(F)F [Example 151, (5)-6-(cyclopropanecarboxamido)-4-((4-methoxy-1-methyl-5-(2,2,2-trifluoro-1-(methoxy-d3)ethyl)-1H-indazol-3-yl)amino)-N-methylnicotinamide] | 0.213 | 0.053
0.284 | 0.071 | [2H]C([2H])([2H])NC(=O)c1cnc(NC(=O)C2CC2)cc1Nc1nn(C)c2ccc([C@H](OC)C(F)(F)F)c(OC([2H])([2H])[2H])c12 [Example 152, (S)-6-(cyclopropanecarboxamido)-4-((4-(methoxy-d3)-1-methyl-5-(2,2,2-trifluoro-1-methoxyethyl)-1H-indazol-3-yl)amino)-N-(methyl-d3)nicotinamide] | – | –
0.235 | 0.055 | [2H]C([2H])([2H])NC(=O)c1cnc(NC(=O)C2CC2)cc1Nc1nn(C([2H])([2H])[2H])c2ccc([C@H](OC)C(F)(F)F)c(OC)c12 [Example 153, (S)-6-(cyclopropanecarboxamido)-4-((4-methoxy-1-(methyl-d3)-5-(2,2,2-trifluoro-1-methoxyethyl)-1H-indazol-3-yl)amino)-N-(methyl-d3)nicotinamide] | – | –
68.4 | 0.496 | CCC(=O)c1cnc(NC(=O)C2CC2)nc1Nc1cccc(-c2cnn(C)n2)c1OC [Example 158, N-(4-((2-methoxy-3-(2-methyl-2H-1,2,3-triazol-4-yl)phenyl)amino)-5-propionylpyrimidin-2-yl)cyclopropanecarboxamide] | – | –
119 | 0.709 | COC(=O)c1cnc(NC(=O)C2CC2)cc1Nc1nn(C)c2ccc(C3COCCO3)c(OC)c12 (stereo not shown) [Example 160, Methyl 4-((5-(1,4-dioxan-2-yl)-4-methoxy-1-methyl-1H-indazol-3-yl)amino)-6-(cyclopropanecarboxamido)nicotinate] | – | –

Compound | IC50 [1, 2] [nM] | IC50 (TYK2-JH2 domain; [3]) [nM] | IC50 ([1]; BaF3, 72 h compound treatment) [nM] | IC50 (TYK2-JH2 domain; read-out: TYK2 JH2 Binding IC50; JH2 domain enzyme; 60 min at 25°C, then 4°C overnight) [nM]
COC(=O)c1cnc(NC(=O)[C@@H]2C[C@@H]2F)cc1Nc1nn(C)c2ccc(C(O)C(F)(F)F)c(OC)c12 (stereo partly drawn) [Example 122, Methyl 6-((1S,2S)-2-fluorocyclopropane-1-carboxamido)-4-((4-methoxy-1-methyl-5-(2,2,2-trifluoro-1-hydroxyethyl)-1H-indazol-3-yl)amino) nicotinate] | 1.16 | 0.178 | – | –
